US9301917B2, “Sustained-release pharmaceutical composition” (Kyoto University, priority 2010, dated 2016)

Experiments:
[1] = biological target: T1, collagen solution (KAI, pH 7, PB buffer) (Bos taurus, UniProt P02453+P02465); test: Influence of various sugars on gelation (fibrillogenesis time) of 3% collagen solution (Reference Example 3(1)); format: physicochemical; conditions: collagen 3% [w/v]; sugar 0.05 to 0.5 M (monosaccharide), 0.05 to 0.25 M (disaccharide), 0.05 M raffinose, 0.05, 0.125 M stachyose; without degassing
T1 construct: atelocollagen obtained by treatment with a protease such as pepsin; KAI
Protocol: • (1) The kind and concentration of a sugar to be added were changed, and an ability of the sugar to suppress the gelation of a collagen solution was confirmed by measuring a fibrillogenesis time.
The collagen was prepared so that the final concentration was 3% [w/v]. KAI (pH 7, PB buffer) was used as the collagen. The kinds and final concentrations of the used sugars are as described below. • (i) Monosaccharide: Glucose or Fructose
0.05, 0.125, 0.25, 0.5 M • (ii) Disaccharide: sucrose or maltose
0.05, 0.125, 0.25 M • (iii) Trisaccharide: raffinose
0.05 M • (iv) Tetrasaccharide: stachyose
It should be noted that, in this reference example, measurements were carried out without degassing.

[2] = biological target: T1, collagen solution (KAI, pH 7, PB buffer); test: Influence of maltotetraose and maltopentaose on gelation of collagen solution (Reference Example 4); format: physicochemical; conditions: collagen 3% [w/v]; sugar 0.05, 0.125 M
Protocol: The kind and concentration of a sugar to be added were changed, and an ability of the sugar to suppress the gelation of a collagen solution was confirmed by measuring a fibrillogenesis time.
The collagen was prepared so that the final concentration was 3% [w/v]. KAI (pH 7, PB buffer) was used as the collagen. The kinds and final concentrations of the used sugars are as described below. • (i) Tetrasaccharide: maltotetraose
0.05, 0.125 M • (ii) Pentasaccharide: maltopentaose

[3] = biological target: T2, collagen solution (KOKEN ATELOCOLLAGEN IMPLANT) (Bos taurus, UniProt P02453+P02465); test: Influence of sucrose, glucose and glucuronic acid on gelation of collagen solution (Reference Example 7); format: physicochemical; conditions: sugar 0.01 M, collagen 3% [w/v], pH 7.4, 37° C., absorbance at 400 nm
T2 construct: atelocollagen obtained by treatment with a protease such as pepsin; purchased KOKEN CO., LTD; KOKEN ATELOCOLLAGEN IMPLANT
Protocol: The following sugars were used as sugars to be added, and an ability of the sugar to suppress the gelation of a collagen solution was confirmed by measuring a fibrillogenesis time.
Monosaccharides: Glucose and Glucuronic Acid
(§1) Each of various sugar solutions was added to a collagen solution (pH 7.4, final concentration: 3% [w/v]) (KOKEN ATELOCOLLAGEN IMPLANT [KOKEN CO., LTD.]) so that the final concentration was 0.01 M, followed by mixing. The mixed solution was measured for its time-dependent change in absorbance at 400 nm with a spectrophotometer while being heated at 37° C.

KS collagen solution = test: Influence of tetrasaccharide on gelation of 0.4% collagen solution (Reference Example 3(2)); format: physicochemical; conditions: collagen 0.4% [w/v], pH 7; 0.05 M stachyose
Description: (2) The influence of a tetrasaccharide on a gelation ability was confirmed in the same manner as in the above-mentioned method (1) except that: the concentration of the collagen was changed to 0.4% [w/v]; and KS collagen (pH 3) adjusted to pH 7 with a neutralization liquid (7% [w/v] Na2HPO4, 0.9% [w/v] NaCl) was used as the collagen solution. 0.05 M stachyose was used as the tetrasaccharide in the same manner as in the method (1).

[4] = biological target: T2, collagen solution (KOKEN ATELOCOLLAGEN IMPLANT); test: Spectroscopic evaluation of influence of sugar on gelation ability of collagen solution (Reference Example 1); format: physicochemical; conditions: sucrose 0.01 or 0.25 M in collagen 3% [w/v], pH 7.4, 37° C., absorbance at 400 nm
Protocol: as §1, with “Specifically, a sucrose solution” for “Each of various sugar solutions”, “(product name: KOKEN” for “(KOKEN”, “IMPLANT)” for “IMPLANT [KOKEN CO., LTD.])”, “0, 0.01, or 0.25” for “0.01”

Type I atelocollagen = test: Spectroscopic evaluation of influence of sugar on gelation of various collagen solutions (Reference Example 2); format: physicochemical, bovine, porcine; conditions: 0.25 M sucrose, 1×PBS, 37° C., absorbance at 400 nm, 3 hours
Protocol: (§2) The influences of a sugar on the gelation abilities (fibrillogenic abilities) of various collagen solutions were investigated.
First, various collagens were each diluted to 0.2% [w/v] with 1 mM HCl. The various collagens used were as follows. • Type I atelocollagen (3.5% KAI: bovine, Lot. 1-107, pH 7) • Type I atelocollagen (3% KAI: porcine, stock of the laboratory, pH 7) • Type II atelocollagen (CL-22, Lot. 622052, pH 3) • Type III atelocollagen (NIP, 0.3% PSC-3-100-20, Lot. BSP310G001, 5 mM acetic acid) • Type I native collagen (1% 1-AC, Lot. 6002173, pH 3) • Shark atelocollagen (produced in the laboratory, powder, stored at −30° C.) […]
(§3) 100 μl of each of the prepared samples were added to a 96-well microplate and measured for its time-dependent change in absorbance at 400 nm (measurement interval: 30 seconds, measurement time: 3 hours) with an optical absorption microplate reader (TECAN, SUNRISE Thermo RC-R) while heated at 37° C. An average of the measured values (n=3) at the respective times was calculated.

Shark atelocollagen = test: as above; format: physicochemical; conditions: 0.25 M sucrose, 1×PBS, 37° C., absorbance at 400 nm, 3 hours
Protocol: as §2
(§4) First, various collagens were each diluted to 0.2% [w/v] with 1 mM HCl. The various collagens used were as follows. • Type I atelocollagen (3.5% KAI: bovine, Lot. 1-107, pH 7) • Type I atelocollagen (3% KAI: porcine, stock of the laboratory, pH 7) • Type II atelocollagen (CL-22, Lot. 622052, pH 3) • Type III atelocollagen (NIP, 0.3% PSC-3-100-20, Lot. BSP310G001, 5 mM acetic acid) • Type I native collagen (1% 1-AC, Lot. 6002173, pH 3) • Shark atelocollagen (produced in the laboratory, powder, stored at −30° C.)
(§5) Distilled water (OTSUKA DISTILLED WATER, Cat. 1324, Lot. 0J90N), 2.5 M sucrose (Wako Pure Chemical Industries, Ltd., Cat. 196-00015, Lot. CKM1674), 100 mg/mL lysozyme (Tokyo Chemical Industry Co., Ltd., Cat. L072), and 10×PBS (DULBECCO′PBS, Dainippon Sumitomo Pharma Co., Ltd., Cat. 28-103-05 FN, Lot. 896458) were added to each of the various collagen solutions at 0.2% [w/v] to prepare a solution having final concentrations of 0.2% [w/v] collagen/0.25 M sucrose/10 mg/mL lysozyme/1×PBS. At this time, the ingredients were added so that the collagen, distilled water, sucrose, lysozyme, and PBS were mixed in this order.
as §3

Type I native collagen = biological target: T3, Type I native collagen (Bos taurus, UniProt P02453+P02465); test: as above; format: physicochemical; conditions: 0.25 M sucrose, 1×PBS, 37° C., absorbance at 400 nm, 3 hours
T3 construct: Type I native collagen (1% 1-AC, Lot. 6002173, pH 3); purchased 1-AC, Lot; 6002173
Protocol: as §2, §4, §5, §3

Type II atelocollagen = biological target: T4, Type II atelocollagen (Bos taurus, UniProt P02459); test: as above; format: physicochemical; conditions: 0.25 M sucrose, 1×PBS, 37° C., absorbance at 400 nm, 3 hours
T4 construct: atelocollagen obtained by treatment with a protease such as pepsin; purchased CL-22, Lot; 622052
Protocol: as §2, §4, §5, §3

Type III atelocollagen = biological target: T5, Type III atelocollagen (Bos taurus, UniProt P04258); test: as above; format: physicochemical; conditions: 0.25 M sucrose, 1×PBS, 37° C., absorbance at 400 nm, 3 hours
T5 construct: atelocollagen obtained by treatment with a protease such as pepsin; purchased NIP PSC-3-100-20, Lot; BSP310G001
T5 sequence (P04258 15-1040 limits assumed): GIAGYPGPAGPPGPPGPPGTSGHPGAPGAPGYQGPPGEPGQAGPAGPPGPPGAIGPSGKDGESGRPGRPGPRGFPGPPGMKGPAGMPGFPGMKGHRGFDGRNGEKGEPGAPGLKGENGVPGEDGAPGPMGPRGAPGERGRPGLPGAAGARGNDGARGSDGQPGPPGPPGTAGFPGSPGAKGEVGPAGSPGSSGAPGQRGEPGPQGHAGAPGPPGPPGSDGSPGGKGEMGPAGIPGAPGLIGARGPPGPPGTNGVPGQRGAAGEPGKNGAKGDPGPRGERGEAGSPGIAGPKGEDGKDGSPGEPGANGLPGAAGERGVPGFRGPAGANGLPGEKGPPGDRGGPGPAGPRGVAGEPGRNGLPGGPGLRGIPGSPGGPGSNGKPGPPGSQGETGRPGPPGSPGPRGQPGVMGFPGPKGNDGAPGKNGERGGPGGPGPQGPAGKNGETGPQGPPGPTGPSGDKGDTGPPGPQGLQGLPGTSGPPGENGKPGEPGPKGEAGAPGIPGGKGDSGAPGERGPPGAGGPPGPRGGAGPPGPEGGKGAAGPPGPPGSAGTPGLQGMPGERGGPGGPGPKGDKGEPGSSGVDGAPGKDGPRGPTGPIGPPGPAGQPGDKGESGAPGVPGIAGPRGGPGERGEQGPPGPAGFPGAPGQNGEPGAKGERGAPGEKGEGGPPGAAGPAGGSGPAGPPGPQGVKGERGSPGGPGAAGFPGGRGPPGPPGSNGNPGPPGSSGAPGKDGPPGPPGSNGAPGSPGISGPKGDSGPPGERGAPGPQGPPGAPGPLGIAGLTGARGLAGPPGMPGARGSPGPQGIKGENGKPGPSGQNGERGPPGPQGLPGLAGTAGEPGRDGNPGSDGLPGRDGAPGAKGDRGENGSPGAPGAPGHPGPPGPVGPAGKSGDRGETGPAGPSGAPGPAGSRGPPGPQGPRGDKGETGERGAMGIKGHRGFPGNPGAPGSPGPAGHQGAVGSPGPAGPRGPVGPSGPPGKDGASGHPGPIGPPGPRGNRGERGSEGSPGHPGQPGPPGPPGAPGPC
Protocol: as §2, §4, §5, §3

[5] = In vivo drug sustained-release ability of thyroglobulin formulation (Example 11); conditions: thyroglobulin (669 kDa) with atelocollagen 3% [w/v], sucrose 0.25 M; 100 μL subcutaneous in mice; afterwards low sustained-release rate
Description: The sustained-release amount of thyroglobulin was quantitatively measured by HPLC in a time-dependent manner.
3.5% [w/v] atelocollagen Lot. I-175, Kasai Lac, 2.5 M sucrose, and a 100-mg protein solution were mixed at a blending ratio of 8:1:1. First, syringes filled with atelocollagen and sucrose were connected in series on ice, followed by thorough mixing by reciprocation 50 times. The mixed liquid was mixed with the protein solution by syringe reciprocation 50 times immediately before subcutaneous injection into mice.
The mice were purchased from Japan SLC, Inc. ICR strain female mice were purchased at 7-week-old 1 week before use and used at 8-week old. The collagen mixed liquid was injected into three sites in an amount of 100 μL per site (n=3). Each of samples after 0, minutes, 30 minutes, 45 minutes, 1 hour, 3 hours, 6 hours, and 12 hours was extirpated and heated to 80° C. in an Eppendorf tube so as to denature the collagen into a solution form. Each of the samples was analyzed through use of Agilent HPLC and an SEC-4 gel filtration column to quantify the concentration of the protein in the gel. In the HPLC, thyroglobulin is eluted at 5.927 minutes.

T2 sequence (P02453 178-1191 limits assumed): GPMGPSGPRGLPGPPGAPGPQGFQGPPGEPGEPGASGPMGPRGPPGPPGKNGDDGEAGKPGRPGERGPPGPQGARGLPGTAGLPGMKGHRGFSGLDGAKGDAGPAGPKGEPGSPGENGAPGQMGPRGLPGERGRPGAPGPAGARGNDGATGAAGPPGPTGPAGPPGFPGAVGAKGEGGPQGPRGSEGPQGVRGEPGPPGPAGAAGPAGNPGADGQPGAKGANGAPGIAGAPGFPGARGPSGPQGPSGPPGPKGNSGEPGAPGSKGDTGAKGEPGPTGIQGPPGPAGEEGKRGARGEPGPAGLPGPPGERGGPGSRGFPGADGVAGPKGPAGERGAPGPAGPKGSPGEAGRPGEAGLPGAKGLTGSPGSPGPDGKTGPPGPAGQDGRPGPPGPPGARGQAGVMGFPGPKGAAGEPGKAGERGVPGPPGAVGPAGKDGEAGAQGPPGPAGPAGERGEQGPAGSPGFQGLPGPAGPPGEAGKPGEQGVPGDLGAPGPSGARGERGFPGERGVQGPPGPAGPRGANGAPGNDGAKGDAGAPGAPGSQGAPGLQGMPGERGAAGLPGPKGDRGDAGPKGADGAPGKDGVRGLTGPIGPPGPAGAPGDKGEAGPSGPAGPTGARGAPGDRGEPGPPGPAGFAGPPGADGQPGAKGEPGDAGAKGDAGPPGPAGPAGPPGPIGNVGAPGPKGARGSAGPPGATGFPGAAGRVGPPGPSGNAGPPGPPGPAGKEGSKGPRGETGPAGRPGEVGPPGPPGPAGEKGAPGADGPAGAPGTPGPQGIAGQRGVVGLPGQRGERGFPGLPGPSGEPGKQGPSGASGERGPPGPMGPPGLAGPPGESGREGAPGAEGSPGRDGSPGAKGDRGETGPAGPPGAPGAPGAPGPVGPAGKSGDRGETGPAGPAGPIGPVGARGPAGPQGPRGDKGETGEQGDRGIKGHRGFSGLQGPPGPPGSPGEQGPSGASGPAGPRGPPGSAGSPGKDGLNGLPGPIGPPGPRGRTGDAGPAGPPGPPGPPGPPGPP
T2 sequence (P02465 80-1117 limits assumed): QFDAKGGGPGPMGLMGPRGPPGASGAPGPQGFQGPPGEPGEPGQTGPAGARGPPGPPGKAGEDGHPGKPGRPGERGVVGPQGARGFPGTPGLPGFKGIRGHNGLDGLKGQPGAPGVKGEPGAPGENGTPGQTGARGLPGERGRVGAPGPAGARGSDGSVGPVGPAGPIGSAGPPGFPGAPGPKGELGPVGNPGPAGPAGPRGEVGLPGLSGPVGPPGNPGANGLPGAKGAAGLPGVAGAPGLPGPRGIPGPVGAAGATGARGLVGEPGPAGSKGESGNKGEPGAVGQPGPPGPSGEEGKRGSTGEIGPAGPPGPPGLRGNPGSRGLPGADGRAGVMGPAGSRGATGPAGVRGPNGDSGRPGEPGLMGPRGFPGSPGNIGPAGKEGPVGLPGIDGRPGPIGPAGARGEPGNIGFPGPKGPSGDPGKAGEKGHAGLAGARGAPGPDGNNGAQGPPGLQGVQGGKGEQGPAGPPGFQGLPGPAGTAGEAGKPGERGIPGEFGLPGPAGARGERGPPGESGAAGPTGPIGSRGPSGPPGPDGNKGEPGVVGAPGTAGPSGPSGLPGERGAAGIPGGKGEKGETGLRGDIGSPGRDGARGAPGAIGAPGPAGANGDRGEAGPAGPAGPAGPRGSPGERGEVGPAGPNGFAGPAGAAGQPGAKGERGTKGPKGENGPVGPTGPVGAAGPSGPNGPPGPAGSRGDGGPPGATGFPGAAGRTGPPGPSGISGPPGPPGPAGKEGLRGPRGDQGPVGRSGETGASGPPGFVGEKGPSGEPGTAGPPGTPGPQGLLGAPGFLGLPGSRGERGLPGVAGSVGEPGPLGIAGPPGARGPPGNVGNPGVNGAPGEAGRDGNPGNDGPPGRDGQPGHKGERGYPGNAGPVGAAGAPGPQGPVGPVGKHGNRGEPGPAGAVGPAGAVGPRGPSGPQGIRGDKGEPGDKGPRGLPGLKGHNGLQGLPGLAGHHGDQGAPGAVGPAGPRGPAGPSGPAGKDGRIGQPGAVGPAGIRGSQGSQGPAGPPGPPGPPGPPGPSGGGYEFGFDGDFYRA
T1 sequence (P02453 178-1191 limits assumed): as the sequence (P02453 178-1191 limits assumed) above
T1 sequence (P02465 80-1117 limits assumed): as the sequence (P02465 80-1117 limits assumed) above
T4 sequence (P02459 201-1214 limits assumed): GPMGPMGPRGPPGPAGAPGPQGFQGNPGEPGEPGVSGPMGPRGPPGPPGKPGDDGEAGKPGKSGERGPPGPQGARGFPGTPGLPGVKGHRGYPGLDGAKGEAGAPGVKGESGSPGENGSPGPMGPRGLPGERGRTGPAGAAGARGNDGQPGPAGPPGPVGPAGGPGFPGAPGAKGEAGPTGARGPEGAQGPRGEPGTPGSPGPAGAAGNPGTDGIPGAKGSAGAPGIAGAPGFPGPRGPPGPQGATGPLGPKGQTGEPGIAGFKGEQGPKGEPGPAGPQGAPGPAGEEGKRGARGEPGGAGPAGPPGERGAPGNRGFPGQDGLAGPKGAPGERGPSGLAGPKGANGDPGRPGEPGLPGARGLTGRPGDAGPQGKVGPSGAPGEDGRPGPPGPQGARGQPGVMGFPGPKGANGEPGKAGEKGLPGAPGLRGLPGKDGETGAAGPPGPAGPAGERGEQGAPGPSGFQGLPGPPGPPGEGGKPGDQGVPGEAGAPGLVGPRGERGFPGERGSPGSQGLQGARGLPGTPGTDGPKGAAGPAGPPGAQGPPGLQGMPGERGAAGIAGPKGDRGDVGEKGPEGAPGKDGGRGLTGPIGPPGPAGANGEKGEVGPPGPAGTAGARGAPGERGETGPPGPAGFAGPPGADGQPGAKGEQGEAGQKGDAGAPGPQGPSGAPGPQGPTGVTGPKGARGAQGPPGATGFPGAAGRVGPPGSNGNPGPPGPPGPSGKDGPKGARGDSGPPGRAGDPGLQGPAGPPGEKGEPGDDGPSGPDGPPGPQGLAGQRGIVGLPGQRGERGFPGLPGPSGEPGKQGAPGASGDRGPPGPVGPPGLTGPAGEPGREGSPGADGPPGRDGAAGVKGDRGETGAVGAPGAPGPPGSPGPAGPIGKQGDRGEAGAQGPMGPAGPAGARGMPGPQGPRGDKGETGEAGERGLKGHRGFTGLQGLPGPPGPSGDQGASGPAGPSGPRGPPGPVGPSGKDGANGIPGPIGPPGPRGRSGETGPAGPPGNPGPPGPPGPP
T3 sequence (P02465 80-1117): as the sequence (P02465 80-1117 limits assumed) above
T3 sequence (P02453 162-1217): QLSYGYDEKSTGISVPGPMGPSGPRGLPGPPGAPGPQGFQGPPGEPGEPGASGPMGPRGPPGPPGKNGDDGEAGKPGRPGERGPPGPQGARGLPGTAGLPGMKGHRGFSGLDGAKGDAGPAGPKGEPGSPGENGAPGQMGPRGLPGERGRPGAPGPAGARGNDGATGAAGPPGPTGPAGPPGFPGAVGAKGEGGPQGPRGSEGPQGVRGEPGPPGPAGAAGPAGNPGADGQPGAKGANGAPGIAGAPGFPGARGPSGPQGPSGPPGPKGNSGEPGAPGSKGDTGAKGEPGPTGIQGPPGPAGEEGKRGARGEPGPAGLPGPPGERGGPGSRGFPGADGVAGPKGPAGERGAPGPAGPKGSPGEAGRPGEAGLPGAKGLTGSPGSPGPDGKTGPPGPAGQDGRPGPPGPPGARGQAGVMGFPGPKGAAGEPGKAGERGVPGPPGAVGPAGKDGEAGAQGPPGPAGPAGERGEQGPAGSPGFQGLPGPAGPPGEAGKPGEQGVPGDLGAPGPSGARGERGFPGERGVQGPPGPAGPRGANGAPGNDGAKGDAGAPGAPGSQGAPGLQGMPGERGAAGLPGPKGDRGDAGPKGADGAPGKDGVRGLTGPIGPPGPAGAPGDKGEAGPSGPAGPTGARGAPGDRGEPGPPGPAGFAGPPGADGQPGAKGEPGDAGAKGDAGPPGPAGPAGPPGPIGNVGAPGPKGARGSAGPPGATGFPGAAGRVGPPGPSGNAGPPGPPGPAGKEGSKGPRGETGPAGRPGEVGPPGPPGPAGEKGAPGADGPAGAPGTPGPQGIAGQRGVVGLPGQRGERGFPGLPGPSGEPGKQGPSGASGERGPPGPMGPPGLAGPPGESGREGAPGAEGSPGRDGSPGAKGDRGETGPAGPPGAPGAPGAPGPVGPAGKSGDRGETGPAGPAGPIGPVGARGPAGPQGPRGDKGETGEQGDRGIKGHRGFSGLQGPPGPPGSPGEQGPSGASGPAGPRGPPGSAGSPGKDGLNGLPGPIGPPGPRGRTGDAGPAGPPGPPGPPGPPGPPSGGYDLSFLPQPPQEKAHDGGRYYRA

OC[C@H]1O[C@H](O[C@H]2[C@H](O)[C@@H](O)C(O)O[C@@H]2CO)[C@H](O)[C@@H](O)[C@@H]1O (mixture of isomers) [maltose]
suppression of gelation of collagen (fibrillogenesis time) [1]: suppressed in a concentration-dependent manner

OC[C@H]1O[C@H](O[C@H]2[C@H](O)[C@@H](O)[C@@H](O[C@H]3[C@H](O)[C@@H](O)[C@@H](O[C@H]4[C@H](O)[C@@H](O)C(O)O[C@@H]4CO)O[C@@H]3CO)O[C@@H]2CO)[C@H](O)[C@@H](O)[C@@H]1O (some centres unmarked) [Maltotetraose, maltotetraose]
fibrillogenesis suppressing effect (fibrillogenesis time) [2]: comparable to that of the monosaccharide

O=C(CO)[C@@H](O)[C@H](O)[C@H](O)CO [fructose]
suppression of gelation of collagen (fibrillogenesis time) [1]: suppressed in a concentration-dependent manner

O=C[C@H](O)[C@@H](O)[C@H](O)[C@H](O)C(=O)O [glucuronic acid]
gelation suppressing effect [3]: low gelation suppressing effect as compared to glucose

OC[C@H]1O[C@H](OC[C@H]2O[C@H](O[C@]3(CO)O[C@H](CO)[C@@H](O)[C@@H]3O)[C@H](O)[C@@H](O)[C@@H]2O)[C@H](O)[C@@H](O)[C@H]1O [raffinose]
suppression of gelation of collagen (fibrillogenesis time) [1]: delayed as compared to the case of adding no sugar

OC[C@H]1O[C@H](OC[C@H]2O[C@H](OC[C@H]3O[C@H](O[C@]4(CO)O[C@H](CO)[C@@H](O)[C@@H]4O)[C@H](O)[C@@H](O)[C@@H]3O)[C@H](O)[C@@H](O)[C@H]2O)[C@H](O)[C@@H](O)[C@H]1O [stachyose]
suppression of gelation of collagen (fibrillogenesis time) [1]: hardly confirmed
fibrillogenesis time of the collagen solution (KS collagen solution): delayed

OC[C@H]1O[C@@](CO)(O[C@H]2O[C@H](CO)[C@@H](O)[C@H](O)[C@H]2O)[C@@H](O)[C@@H]1O [sucrose]
influence on gelation of collagen solution [4]: delayed in a sucrose concentration-dependent manner
influence on gelation of collagen solution (Type I atelocollagen): suppressed gelation
influence on gelation of collagen solution (Shark atelocollagen): suppressed gelation
influence on gelation of collagen solution (Type I native collagen): suppressed gelation
influence on gelation of collagen solution (Type II atelocollagen): suppressed gelation
influence on gelation of collagen solution (Type III atelocollagen): suppressed gelation
suppression of gelation of collagen (fibrillogenesis time) [1]: suppressed in a concentration-dependent manner
gelation suppressing effect [3]: high gelation suppressing effect

maltopentaose
fibrillogenesis suppressing effect (fibrillogenesis time) [2]: substantially no delay

thyrogloblin: high molecular weight protein (669 kDa) used as drug in sucrose/atelocollagen formulation
period of fast release after the injection [5]: ≤ 3 h
